Laboratory results as given in US20260207570A1, “OPTIMIZED DOSING OF LERIGLITAZONE” (MINORYX THERAPEUTICS S.L., priority 2022, published 2026).

Tests used:
[1] = Phase 1 safety and tolerability (treatment-emergent adverse events); assay type: in vivo, human
Protocol: Study design: A phase 1, randomized, double blind, placebo-controlled, single-center clinical study in 33 male healthy volunteers (HV) (19-54 years, 63.2-95.7 Kg) was conducted with leriglitazone HCl and divided in two parts: a single ascending dose (SAD) with three dose levels (30, 90 and 270 mg) in fasted conditions, followed with two dose levels (90 and 270 mg) in fed conditions; a multiple ascending dose (MAD) with a double-blind, parallel-design with two dose levels (135 and 270 mg) for 8 days and a separate cohort of subjects in an open-label parallel design with two dose levels (135 and 270 mg) including cerebrospinal fluid (CSF) collection on day 8. In the fasted conditions a fasting period of at least 4 hours was required before obtaining plasma samples. The food effect (FE) was assessed by comparing fasted with fed conditions (dosing after a high-fat breakfast per FDA definition with a calculated caloric content of 918 kcal). In the MAD part (fed) the medication was taken before a normal breakfast. Leriglitazone HCl was supplied by ChemConnection and an oral suspension of leriglitazone (20% w/v kleptose, 2% ethanol in 100 mM phosphate buffer pH=7.8) at 6 mg/ml was used in the study. Safety: Safety and tolerability assessments consisted of adverse events (AEs), clinical laboratory, vital signs, 12-lead electrocardiogram (ECG), and physical examination.

[2] = substrate: CC(O)c1ccc(CCOc2ccc(CC3SC(=O)NC3=O)cc2)nc1; test: Metabolism kinetics with recombinant CYP2C8; assay type: in vitro ADME, human
Description: CYP2C8 and CYP3A4 were identified in vitro as the major contributing enzymes of leriglitazone with CYP2C8 mostly responsible for the formation of the main metabolite M3. Kinetic parameters of human CYP2C8 and CYP3A4 mediated metabolism of leriglitazone were studied in in vitro studies using recombinant CYP3A4 and CYP2C8 enzymes (ADMESCOPE, Finland). […] As the disappearance of leriglitazone was very slow especially at high initial concentrations, the accuracy of the fit was not as good as based on M3 formation. […] Thus, it was not possible to fit the kinetic parameters Km and Vmax.

[3] = phase 1, healthy male volunteers
[4] = other: recombinant CYP2C8, based on M3 formation
[5] = other: recombinant CYP2C8, based on leriglitazone depletion

With `CC(O)c1ccc(CCOc2ccc(CC3SC(=O)NC3=O)cc2)nc1.Cl` (centres unmarked) [leriglitazone HCl, 5-[[4-[2-[5-(1-hydroxyethyl)pyridin-2-yl]ethoxy]phenyl]methyl]-1,3-thiazolidine-2,4-dione hydrochloride] the “clinical laboratory evaluations, vital signs, ECGs and physical examinations” value ([1]; phase 1, healthy male subjects) was “No clinically significant changes from baseline”, the “serious AEs” value [1, 3] was “no serious AEs reported” and the “severity of treatment-emergent adverse events” value [1, 3] was “of mild severity”. The safety and tolerability ([1]; single and multiple doses, healthy male subjects) was “safe and well tolerated”.

B1: human CYP2C8 (Homo sapiens) (protein)
chain: MEPFVVLVLCLSFMLLFSLWRQSCRRRKLPPGPTPLPIIGNMLQIDVKDICKSFTNFSKVYGPVFTVYFGMNPIVVFHGYEAVKEALIDNGEEFSGRGNSPISQRITKGLGIISSNGKRWKEIRRFSLTTLRNFGMGKRSIEDRVQEEAHCLVEELRKTKASPCDPTFILGCAPCNVICSVVFQKRFDYKDQNFLTLMKRFNENFRILNSPWIQVCNNFPLLIDCFPGTHNKVLKNVALTRSYIREKVKEHQASLDVNNPRDFIDCFLIKMEQEKDNQKSEFNIENLVGTVADLFVAGTETTSTTLRYGLLLLLKHPEVTAKVQEEIDHVIGRHRSPCMQDRSHMPYTDAVVHEIQRYSDLVPTGVPHAVTTDTKFRNYLIPKGTTIMALLTSVLHDDKEFPNPNIFDPGHFLDKNGNFKKSDYFMPFSAGKRICAGEGLARMELFLFLTTILQNFNLKSVDDLKNLNTTAVTKGIVSLPPSYQICFIPV
notes: purchased ADMESCOPE, Finland
Work on B1 yielded a Km [2, 4] of 34.0 µM, a kcat [2, 4] of 2.27 pmol/min/pmol CYP and a Km [2, 5] of 13.7 µM. It also gave a kcat [2, 5] of 1.60 pmol/min/pmol CYP.
